Data: patent US20190201419A1, “COMPOUND AND METHOD FOR THE TREATMENT AND DIAGNOSIS OF NEURODEGENERATIVE CONDITIONS” (Swansea University, priority 2013, published 2019)

Experiments:
Lxrα = molecular target: T1, Lxrα (Homo sapiens, UniProt Q13133); test: Lxrα luciferase reporter assay in SN4741 neural cells; format: cell-based, mouse; conditions: 10 μM, 24 h
T1 construct: expressed in transfected cells; host or cells: SN4741 mouse neuronal cell line
T1 sequence (Q13133 1-447): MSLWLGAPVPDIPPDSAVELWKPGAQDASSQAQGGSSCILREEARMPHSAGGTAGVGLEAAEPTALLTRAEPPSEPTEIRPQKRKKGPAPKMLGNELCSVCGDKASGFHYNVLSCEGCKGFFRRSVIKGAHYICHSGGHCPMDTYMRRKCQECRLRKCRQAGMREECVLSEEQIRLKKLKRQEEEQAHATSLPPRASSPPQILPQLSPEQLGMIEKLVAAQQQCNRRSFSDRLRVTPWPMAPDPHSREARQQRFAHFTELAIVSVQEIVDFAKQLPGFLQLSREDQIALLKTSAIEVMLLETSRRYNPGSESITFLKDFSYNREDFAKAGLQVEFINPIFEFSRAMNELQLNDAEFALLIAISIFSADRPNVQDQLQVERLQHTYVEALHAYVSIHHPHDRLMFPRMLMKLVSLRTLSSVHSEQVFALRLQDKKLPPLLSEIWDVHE
Text: Luciferase Reporter Assay.

[1] = tested on: Abca1, Abcg1 and Srebf1 transcript levels; test: Quantitative PCR of Lxr target genes in SN4741 cells; format: cell-based, mouse; conditions: 3 h
Method: Quantitative PCR, Total RNA was extracted from SN4741. cells and zebrafish treated with the compounds of interest using the RNeasy Mini Kit (Qiagen), 1 μg was treated with RQ1 RNase-free DNase (Promega) and reverse transcribed using SuperScript II Reverse Transcriptase (invitrogen) and random primers (invitrogen) (RT+reaction). Parallel reactions without reverse transcriptase enzyme were done as a control (RT−reaction), and Sybergreen real-time quantitative PCR assays were performed. Expression levels were obtained by normalization with the Value of the housekeeping gene encoding actin obtained for every sample in parallel assays.

[2] = tested on: Islet1+ oculomotor neurons; test: In utero injection into the cerebral aqueduct of E11.5 mice; format: in vivo, mouse; conditions: for Number of Islet+ oculomotor neurons in vivo: injected at E11.5, analyzed at E13.5
Text: Animals for in-utero injections and tissue preparation. Female wild-type CD-1 mice ([…]; Charles River Breeding Laboratories) were housed, bred, and treated according to the guidelines of the European Communities Council (directive 86/609/EEC) and the Society for Neuroscience (www.sfr.org/handbook), and all experiments were approved by the local ethical committee. Ethical approval for CD-1 mice experimentation was granted by Stockholm Norra Djurförsökselisks Nämnd number N154/06, N273/11 and N370/09, For embryo analyses, wild type CD-1 mice were mated overnight, and noon of the day the plug was considered E0.5. Embryos were dissected out of the uterine horns in ice-cold PBS, fixed in 4% paraformaldehyde (PFA) for 4 h to overnight, cryoprotected in 15-30% sucrose, frozen in Tissue-Tek Optimum Cutting Temperature (OCT) compound (Sakura Fine-Tek) on dry ice, and stored at −80° C. until use. Serial coronal 14-μm sections of the brain were obtained on a cryostat.
Immunohistochemical analysis of sections. Ten sets of 14 μm serial coronal sections were cut on a cryostat. No. 1 and 6 sets were subjected to immunohistochemistry. Sections were pre-incubated for 1 h in blocking solution followed by incubation at 4° C. overnight with following primary antibodies: anti-TH (1:750, Pel-Freeze), anti-Islet-1 (1:100; Developmental Studies Hybridoma Bank), anti-cleaved caspase-3 (Asp175) (1:100; Cell Signaling Technology). After washing, slides were incubated for 1-2 h at room temperature with the appropriate fluorophore-conjugated (Cy2-, Cy5-, 1:300, Jackson Laboratories; Alexa488-, 555-, and 647-, 1:1000, Invitrogen) secondary antibodies. Confocal pictures were taken with a Zeiss LSM5 Exciter or LSM700 microscope.
In utero intraventricular injections. E11.5 pregnant females were deeply anesthetized using Isofluorane (IsoFlo®, Abbott Labs) and the uterine horns were accessed through an abdominal incision. 1 μL, of the different cholestenoic acids studied (5 mM) or vehicle solution (isopropanol, 50% v/v) was injected into the cerebral aqueduct. […] Embryos were analyzed 48 h later.

[3] = tested on: TH+ dopamine neurons, GABAergic or red nucleus neurons; Nkx6.1+ cells; test: Other cell types in mouse E11.5 brain primary cultures; format: cell-based
Method: Primary Brain Cultures. Brains from E11.5 mice were manually dissected, plated on poly-D-lysine (150,000 cells/cm^2) and grown in serum-free N2 media consisting of 1:1 mixture of F12 and DMEM with 10 ng/mL insulin, 100 μg/mL apo-transferrin, 100 μM putrescine, 20 nM progesterone, 30 nM selenium, 6 mg/mL glucose, and 1 mg/mL BSA. Cells were treated for 3 days in vitro (DIV) with the compounds of interest, fixed with 4% PFA and processed for staining using appropriate antibodies.
Antibodies and Detection Procedures. Cells were fixed in 4% PFA, washed in PBS and blocked in 5% normal goat serum/PBS for 1 h at room temperature. Primary antibodies were diluted in PBS (pH 7.4), 0.3% Triton X-100, 1% BSA and incubations were carried out overnight at +4° C. or at room temperature for 2 h. The antibodies used were anti-:BrdU (1:400; Abeam), Islet-1 (1:100: Developmental Studies Hybridoma Bank), cleaved caspase-3 (Aspt 75) (1:100; Cell Signaling Technology), tyrosine hydroxylase (TH; 1:1000; Pel-Freeze) GABA (1:1,000; Sigma), Bm3a (1:250; Millipore), Nkx6.1 (1:200; Novus Biologicals), choline acetyltransferase (ChAT; 1:500; Millipore) and appropriate secondary antibodies (Jackson ImmunoResearch or Alexa). Cells positive for the corresponding marker were counted directly at the microscope at a magnification of 20×. Cells were counted in every well, in eight consecutive fields (going from one side of the well to the other, passing through the center), in three different wells per experiment and in three different experiments per condition. Random pictures of the wells were taken for every condition to document the result, and representative pictures were subsequently selected to represent the quantitative data. Photos were acquired with a Zeiss Axioplan microscope and a Hamamatsu camera C4742-95 using the Openlab software.

Row | SMILES | Lxrα activation, luciferase activity (fold activation) (Lxrα) | Abca1, Abcg1 and Srebf1 transcript levels [1] | Effect of co-injection on the reduction of oculomotor neurons by 3β-HCA ([2]; co-injection with 3β-HCA) | Number of Islet+ oculomotor neurons in vivo [2] | Total number of Nkx6.1+ cells [3] | Number of other midbrain neurons (TH+ dopamine, GABAergic, red nucleus) ([3]; data not shown)
1 | CC(CCC[C@@H](C)[C@H]1CC[C@H]2[C@@H]3[C@H](O)C=C4C[C@@H](O)CC[C@]4(C)[C@H]3CC[C@]12C)C(=O)O (stereo partly drawn) [3β,7α-diHCA, 3β,7α-dihydroxycholest-5-en-26-oic acid] | have the ability to activate both Lxrs | increased transcripts levels to a similar degree as 22R-HC | this effect was eliminated by co-injection of 3β,7α-diHCA | an increase in the number of Islet+ oculomotor neurons | neither 3β,7α-diHCA nor 3β-HCA altered the total number of Nkx6.1+ cells | did not affect the number of other midbrain neurons
2 | CC(CCC[C@@H](C)[C@H]1CC[C@H]2[C@@H]3CC=C4C[C@@H](O)CC[C@]4(C)[C@H]3CC[C@]12C)C(=O)O (stereo partly drawn) [3β-HCA, 3β-hydroxycholest-5-en-26-oic acid] | activates Lxr | induced transcription, but to a lesser extent |  | the number of oculomotor neurons was reduced | neither 3β,7α-diHCA nor 3β-HCA altered the total number of Nkx6.1+ cells | 
